Test results taken from patent publication US20170058314A1, “NOVEL METHODOLOGY FOR IDENTIFYING ANTI-PERSISTER ACTIVITY AND ANTIMICROBIAL SUSCEPTIBILITY FOR BORRELIA BURGDORFERI AND OTHER BACTERIA” (priority 2014, published 2017).
In brackets after ≈: the same amount, converted by molar mass. Several values for one entry are separate records, joined by “and”; a condition that tells them apart may be missing. Equal entries are not always repeated.

Key:
[1] = system: K. pneumoniae (Isolate 7); experiment: Rapid SYBR Green/PI antibiotic susceptibility test, 30 minutes; assay type: cell-based, Klebsiella pneumoniae; details: 25 μg/mL
[2] = system: E. coli strains (W3110, UTI89, CFT073, KTE181); experiment: Rapid SYBR Green/PI antibiotic susceptibility test; assay type: cell-based, Escherichia coli; details: for percent killed, sensitive strain W3110: others 25 μg/mL
E. coli W3110 = experiment: MIC by broth microdilution (OD600) and SYBR Green/PI; assay type: cell-based; details: Escherichia coli; E. coli W3110, overnight incubation
From the text: The Kirby-Bauer disk diffusion assay was used to determine the susceptibility of the various strains to antibiotics. Instructions and also interpretation of zone diameters were made using the established standards as listed in the Clinical and Laboratory Standards Institute (CLSI). Briefly, bacterial cultures were adjusted to a 0.5 McFarland turbidity standard and spread onto Mueller-Hinton agar. Paper Disks were impregnated onto the agar and the antibiotics at concentrations recommended by CLSI were pipetted onto each blank disk and allowed to air dry for 10 minutes. The plates were incubated at 37° C. overnight before the zone of inhibition was measured in millimeters. […]
The staining dye for Staphylococcus aureus, Escherichia coli, Acinetobacter baumanii, and Mycobacterium tuberculosis were made by mixing SYBR Green I to propidium iodide (1:3) in 100 μl distilled H2O. […] The green and red fluorescence intensity was detected using a Synergy H1 microplate reader by Bio Tek Instruments (VT, USA) at excitation wavelength of 485 nm, 538 nm (green emission), and 612 nm (red emission). The percentage of live cells in each sample was determined by a regression equation generated by a standard curve. […] The staining mixture was added to each sample and the green/red fluorescent ratios were measured as described above. […]

E. coli UTI89 persisters = experiment: Persister assay (CFU enumeration and SYBR Green/PI); assay type: cell-based, Escherichia coli; details: ampicillin 100, ofloxacin 5, polymycin B 10, gentamicin 20 μg/mL
Experimental: Stationary phase cultures of E. coli UTI89 were treated with ofloxacin (5 μg/mL) for 4 hours to enrich for persisters, followed by drug exposure with different antibiotics including ampicillin (100 μg/mL), ofloxacin (5 μg/mL), polymycin B (10 μg/mL) and gentamicin (20 μg/mL). The bacterial viability was determined by CFU enumeration and SYBR Green/PI assay as described above.

[3] = system: stationary phase B. burgdorferi persisters (strain B31); details: drug alone; cited from earlier work
[4] = system: round body form of B. burgdorferi; experiment: SYBR Green I/PI assay on amoxicillin-induced round body form; details: for viability at 50 µM: Borreliella burgdorferi, 168 h, read-out: Residual viable cells (SYBR Green I/PI assay); for Ratios of green/red fluorescence, Primary screening / Ratios of green/red fluorescence, Rescreening (first column) / Ratios of green/red fluorescence, Rescreening (second column): round body form, 50 μM, 7 days
B. burgdorferi = details: after 72 h; Kraiczy et al., 2001; cited from earlier work
[5] = system: S. aureus strains (Newman, USA300, CA-409, CA-127, NY-315); experiment: Rapid SYBR Green/PI antibiotic susceptibility test; assay type: cell-based, Staphylococcus aureus; details: for cut-off (averaged proportion of killed cells) for resistant strains / cut-off (averaged proportion of killed cells) for susceptible strains: 100 μg/mL, 1.5 hours
[6] = system: B. burgdorferi (growing, strain B31); experiment: MIC determination, standard microdilution method; assay type: cell-based, Borrelia burgdorferi; details: Borreliella burgdorferi; growing B. burgdorferi; read-out: MIC
[7] = system: stationary phase B. burgdorferi persisters (strain B31); experiment: SYBR Green I/PI viability assay (plate reader), FDA-approved drug library screen
[8] = system: stationary phase B. burgdorferi persisters (strain B31); experiment: epifluorescence microscope counting after SYBR Green I/PI staining, FDA drug screen; details: Borreliella burgdorferi, 168 h, read-out: Residual viable cells (epifluorescence microscope counting)
[9] = system: log phase and stationary phase B. burgdorferi culture; experiment: Antibiotic exposure assay, SYBR Green I/PI (drugs alone and combinations); details: Borreliella burgdorferi, 168 h, read-out: Live Cell % (residual viable B. burgdorferi), ten-day-old stationary phase culture enriched with micro-colonies, 10 μg/mL each drug, 7 days
How it was run: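 Stationary-phase or round-body B. burgdorferi exposed 7 days at 33 °C to drugs alone or combined at 10 μg/mL each (single-compound screen: 50 μM final). Viability by SYBR Green I/PI, ex 485, em 535/635 nm; percent live from regression of green/red ratio, corrected by direct microscopy counting.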

[10] = system: B. burgdorferi log and stationary phase cultures; experiment: epi-fluorescence microscope counting after antibiotic exposure (persister frequency, planktonic forms); assay type: cell-based, Borrelia burgdorferi
Experimental: Specimens were examined on a Nikon Eclipse E800 microscope equipped with differential interference contrast (DIC) and epi-fluorescence illumination, and recorded with a Spot slider color camera. Cell proliferation assays were performed by direct counting using a bacterial counting chamber (Hausser Scientific Partnership) and DIC microscopy. SYBR Green I/PI assay was performed to assess the viability of B. burgdorferi. The ratio of live (green) and dead (red) B. burgdorferi was calculated by counting these cells using a bacterial counting chamber and epi-fluorescence microscopy. The three representative images of every sample were captured for quantitative analysis. Image Pro-Plus software was applied for measuring the biomass (fluorescence intensity) of different forms (spirochetes, round body, and microcolony) of B. burgdorferi as previously described (Shopov and Williams, 2000).
To qualitatively determine the effect of antibiotics, 10 μL of each compound from the pre-diluted plate or pre-diluted stock was added to stationary phase B. burgdorferi culture in the 96-well plate. The final volume per well was adjusted to 100 μL at a concentration of 10 μg/mL for each antibiotic. Plates were sealed and placed in a 33° C. incubator for 7 days. The SYBR Green I/PI viability assay was used to assess the live and dead cells after antibiotic exposure as described (Feng, Wang, Shi, et al., 2014). Briefly, 10 μL of SYBR Green I (10,000×stock, Invitrogen) was mixed with 30 μL propidium iodide (PI, 20 mM) into 1.0 mL of sterile dH2O. Then, 10 μL of staining mixture was added to each well and mixed thoroughly. The plates were incubated at room temperature in the dark for 15 minutes followed by plate reading at excitation wavelength at 485 nm and the fluorescence intensity at 535 nm (green emission) and 635 nm (red emission) in microplate reader (HTS 7000 plus Bio Assay Reader, PerkinElmer Inc., USA). With least-square fitting analysis, the regression equation and regression curve of the relationship between percentage of live bacteria and green/red fluorescence ratios was obtained. The regression equation was used to calculate the percentage of live cells in each well of the 96-well plate.
Therefore, the frequency of B. burgdorferi persisters in log phase and stationary phase cultures was assessed using the SYBR Green I/PI viability assay after exposure of the cultures to antimicrobials. E. coli culture was used as a control after exposure to antibiotics to validate the SYBR Green I/PI viability assay for persister frequency assessment.

M. tuberculosis H37Ra = assay type: cell-based, Mycobacterium tuberculosis; details: pH 5.9
S. aureus USA300 = experiment: MIC by broth microdilution (OD600) and SYBR Green/PI; assay type: cell-based; details: Staphylococcus aureus; S. aureus USA300, overnight incubation
[11] = 30 minutes, ampicillin 100 μg/mL
[12] = ampicillin, streptomycin 100 μg/mL, trimethoprim 5 μg/mL
[13] = 50 μM, 7 days, stationary phase

CO/N=C(\C(=O)N[C@@H]1C(=O)N2C(C(=O)O)=C(COC(C)=O)CS[C@H]12)c1csc(N)n1 [cefotaxime]
killing of resistant K. pneumoniae strain [1]: not killed at all | percent killed, sensitive strain W3110 [2, 11]: 24%

CC1(C)S[C@@H]2[C@H](NC(=O)[C@H](N)c3ccccc3)C(=O)N2[C@H]1C(=O)O [ampicillin]
percent killed, sensitive strain UTI89 [2, 11]: 23% | percent killed, sensitive strain W3110 [2, 11]: 38% | percent killed, resistant strain KTE181 ([2]; 30 minutes, ampicillin 100, trimethoprim 25, streptomycin 25 μg/mL): 1% | cut-off (averaged proportion of killed cells) for resistant strains [2, 12]: -0.1 | cut-off (averaged proportion of killed cells) for susceptible strains [2, 12]: −0.5 | MIC (E. coli W3110): 8 µg/mL | level of persisters over 7 days (words; CFU and SYBR Green/PI) (E. coli UTI89 persisters): stayed constant

Cc1ccc(C(C)C)c(O)c1 [Thymol]
residual live cell percentage, stationary phase, previous drug screen [3]: 82% | viability at 50 µM [4]: 34% | Ratios of green/red fluorescence, Primary screening [4]: 6.15 | Ratios of green/red fluorescence, Rescreening (first column) [4]: 6.36 | Ratios of green/red fluorescence, Rescreening (second column) [4]: 6.36

O=C(O)c1cn(C2CC2)c2cc(N3CCNCC3)c(F)cc2c1=O [Ciprofloxacin]
MBC (B. burgdorferi): 16 μg/mL and 41.5 μM | cut-off (averaged proportion of killed cells) for resistant strains [5]: −0.1 | cut-off (averaged proportion of killed cells) for susceptible strains [5]: −0.3 | percent killed, resistant strain CA-409 ([5]; 30 minutes, kanamycin 25, ciprofloxacin 50, gentamicin 400 μg/mL): 21% | percent killed, sensitive Newman strain ([5]; 30 minutes, kanamycin 25, erythromycin 400, ciprofloxacin 50, gentamicin 400 μg/mL): 58% | MIC [6]: 0.8 to 1.6 µg/mL (≈ 2.41 to 4.83 µM)

CO/N=C(\C(=O)N[C@@H]1C(=O)N2C(C(=O)O)=C(CSc3nc(=O)c(=O)[nH]n3C)CS[C@H]12)c1csc(N)n1 [Ceftriaxone]
Ratio of Green/Red fluorescence, Primary screening [7, 13]: 6.74 | Ratio of Green/Red fluorescence, Rescreening (first column) [7, 13]: 6.89 | Ratio of Green/Red fluorescence, Rescreening (second column) [7, 13]: 6.78 | viability at 50 µM ([7]; Borreliella burgdorferi, 168 h, read-out: Residual viable cells (regression equation, SYBR Green I/PI assay)): 44% | viability at 50 µM [8]: 50% | killing of resistant K. pneumoniae strain [1]: not killed at all | percent killed, sensitive strain W3110 [2, 11]: 37% | viability at 10 µg/mL [9]: 68% | persister frequency (percentage of live cells after antibiotic treatment, in brackets) ([10]; 3-day log phase culture): (5.8%) | persister frequency (in brackets) ([10]; 7-day stationary phase culture): (16%) | persister frequency (in brackets) ([10]; 10-day stationary phase culture): (~25%) | viability at 50 µM [4]: 36% | Ratios of green/red fluorescence, Primary screening [4]: 6.37 | Ratios of green/red fluorescence, Rescreening (first column) [4]: 6.29 | Ratios of green/red fluorescence, Rescreening (second column) [4]: 6.39

NC(=O)c1cnccn1 [PZA, pyrazinamide]
susceptibility of parent strain H37Ra (M. tuberculosis H37Ra): susceptible

O=C(N[C@H](CO)[C@H](O)c1ccc([N+](=O)[O-])cc1)C(Cl)Cl [chloramphenicol]
MIC (S. aureus USA300): 4 µg/mL (≈ 12.4 µM) | cut-off (averaged proportion of killed cells) for resistant strains [5]: −0.1 | cut-off (averaged proportion of killed cells) for susceptible strains [5]: −0.5
